Key:
CFTR ΔF508 mutant = biological target: T1, CFTR ΔF508 mutant (Homo sapiens, UniProt P13569, DEL508-508); assay: YFP-halide influx assay for the CFTR-ΔF508 mutation (384 well, CFBE41o- cells, FDSS/μCell); assay type: cell-based; conditions: forskolin 10.67 μM, fluorescence after 36 seconds, read-out: EC50 measured by YFP-halide influx assay for the CFTR-ΔF508
T1 construct: expressed in transfected cells; host or cells: CFBE41o- (adenoviral transduction)
Text: 6.2. YFP-Halide Influx Assay for the CFTR-ΔF508 Mutation
The YFP halide influx assay measures the functionality of the cystic fibrosis Transmembrane Conductance regulator (CFTR) channels in the cystic fibrosis bronchial epithelium cell line CFBE41o-. The assay is used to evaluate the capacity of compounds to increase the open probability of existing CFTR channels in the membrane. It makes use of the observation that the yellow fluorescent protein (YFP) variant YFP H148Q, I152L has its fluorescence substantially quenched by halide ions like Cl— and I— (Galietta et al., 2001; Nagai et al., 2002).
For this purpose, CFBE410-cells are seeded in 384 well plates (3000 CFBE cells/well). One day after seeding, the CFBE cells are transduced with adenoviral vectors that direct the expression of the CFTR ΔF508 mutant and of the YFP reporter. Cells are incubated at 27° C., 5% CO2 for 24 hours so as to allow for the proper folding and migration to the membrane of the CFTR channel or treated with a CFTR modulator during 24 h at 37° C.
(§1) The I— induced quenching of fluorescence is recorded on an immediately after injection of I— for 2 min on an FDSS/μCell (Hamamatsu). The capacity of a compound to increase the channel opening is directly correlated with the decrease in fluorescence, and is expressed as (1−(fluorescence after 36 seconds (F)/fluorescence before injection (F0))) and an EC50 can be derived from a (1−F/F0) vs compound concentration plot.

CFTR G551D mutant = biological target: T2, CFTR G551D mutant (Homo sapiens, UniProt P13569, G551D); assay: YFP-halide influx assay for the CFTR-G551D mutation (HEK293 cells); assay type: cell-based; conditions: HEK293 cells expressing CFTR G551D and YFP reporter; forskolin 10.67 μM; read-out: EC50 measured by YFP-halide influx assay for the CFTR-G551D
T2 construct: expressed in transfected cells; host or cells: HEK293 (reverse transfection with plasmids)
T2 sequence (P13569 whole entry G551D): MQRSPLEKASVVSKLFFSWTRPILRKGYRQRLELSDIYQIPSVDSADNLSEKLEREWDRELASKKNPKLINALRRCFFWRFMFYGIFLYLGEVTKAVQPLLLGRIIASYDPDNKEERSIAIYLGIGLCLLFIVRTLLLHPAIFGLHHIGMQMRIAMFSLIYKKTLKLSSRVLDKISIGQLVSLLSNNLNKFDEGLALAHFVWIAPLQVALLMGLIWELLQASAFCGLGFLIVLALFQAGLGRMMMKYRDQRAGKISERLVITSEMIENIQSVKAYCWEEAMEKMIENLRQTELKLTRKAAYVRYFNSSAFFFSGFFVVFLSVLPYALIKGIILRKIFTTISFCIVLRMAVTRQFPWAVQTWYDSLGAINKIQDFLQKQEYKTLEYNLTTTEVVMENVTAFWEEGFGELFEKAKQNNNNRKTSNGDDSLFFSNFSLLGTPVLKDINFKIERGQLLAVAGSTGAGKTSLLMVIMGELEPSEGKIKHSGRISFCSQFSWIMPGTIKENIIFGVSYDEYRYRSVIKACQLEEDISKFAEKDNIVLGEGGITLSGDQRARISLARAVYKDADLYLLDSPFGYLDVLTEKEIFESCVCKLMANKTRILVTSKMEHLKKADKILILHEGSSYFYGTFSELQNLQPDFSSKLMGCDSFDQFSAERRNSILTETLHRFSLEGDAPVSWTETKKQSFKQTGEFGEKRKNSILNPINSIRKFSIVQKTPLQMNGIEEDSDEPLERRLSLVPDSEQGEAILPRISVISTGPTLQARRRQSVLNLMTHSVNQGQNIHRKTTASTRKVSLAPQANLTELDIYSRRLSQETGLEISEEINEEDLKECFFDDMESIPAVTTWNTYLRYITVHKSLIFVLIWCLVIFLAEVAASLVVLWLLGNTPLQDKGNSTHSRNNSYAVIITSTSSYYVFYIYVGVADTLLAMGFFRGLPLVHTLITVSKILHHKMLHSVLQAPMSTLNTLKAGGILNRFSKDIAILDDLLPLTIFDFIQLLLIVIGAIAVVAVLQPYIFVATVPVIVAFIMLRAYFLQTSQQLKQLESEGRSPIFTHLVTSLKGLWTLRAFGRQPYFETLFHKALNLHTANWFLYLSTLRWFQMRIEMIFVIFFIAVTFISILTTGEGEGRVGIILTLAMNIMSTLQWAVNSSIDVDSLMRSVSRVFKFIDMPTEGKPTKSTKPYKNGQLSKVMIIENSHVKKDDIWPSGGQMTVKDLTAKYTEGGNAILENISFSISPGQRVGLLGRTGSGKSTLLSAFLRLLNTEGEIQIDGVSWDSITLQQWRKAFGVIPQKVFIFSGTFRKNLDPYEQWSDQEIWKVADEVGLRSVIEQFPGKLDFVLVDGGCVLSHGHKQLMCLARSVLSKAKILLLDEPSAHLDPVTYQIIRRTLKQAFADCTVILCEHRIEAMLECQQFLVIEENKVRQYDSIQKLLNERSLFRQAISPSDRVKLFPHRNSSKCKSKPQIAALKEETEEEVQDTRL
Text: 6.3. YFP-Halide Influx Assay for the CFTR-G551D Mutation
The YFP halide influx assay measures the functionality of the cystic fibrosis Transmembrane Conductance regulator (CFTR) channels. The assay is used to evaluate the capacity of compounds to increase the channel opening of existing mutant CFTR channels in the membrane. It makes use of the observation that the yellow fluorescent protein (YFP) variant YFP H148Q, I152L, F47L has its fluorescence substantially quenched by halide ions like Cl^− and I^−. (Galietta et al., 2001)
For this purpose, HEK293-cells are seeded in 96 well plates. During seeding, the cells are reverse-transfected with plasmid vectors that direct the expression of the CFTR G551D mutant and of the YFP reporter. Cells are incubated at 37° C., 5% CO2 for 24 hours so as to allow for sufficient expression of the CFTR protein.
as §1, with “I^−-induced” for “I— induced”, “recorded” for “recorded on an”, “I^−” for “I—”, “7 seconds.” for “2 min on an FDSS/μCell (Hamamatsu).”, “7” for “36”

T1 sequence (P13569 with tags, fused parts or gaps DEL508-508): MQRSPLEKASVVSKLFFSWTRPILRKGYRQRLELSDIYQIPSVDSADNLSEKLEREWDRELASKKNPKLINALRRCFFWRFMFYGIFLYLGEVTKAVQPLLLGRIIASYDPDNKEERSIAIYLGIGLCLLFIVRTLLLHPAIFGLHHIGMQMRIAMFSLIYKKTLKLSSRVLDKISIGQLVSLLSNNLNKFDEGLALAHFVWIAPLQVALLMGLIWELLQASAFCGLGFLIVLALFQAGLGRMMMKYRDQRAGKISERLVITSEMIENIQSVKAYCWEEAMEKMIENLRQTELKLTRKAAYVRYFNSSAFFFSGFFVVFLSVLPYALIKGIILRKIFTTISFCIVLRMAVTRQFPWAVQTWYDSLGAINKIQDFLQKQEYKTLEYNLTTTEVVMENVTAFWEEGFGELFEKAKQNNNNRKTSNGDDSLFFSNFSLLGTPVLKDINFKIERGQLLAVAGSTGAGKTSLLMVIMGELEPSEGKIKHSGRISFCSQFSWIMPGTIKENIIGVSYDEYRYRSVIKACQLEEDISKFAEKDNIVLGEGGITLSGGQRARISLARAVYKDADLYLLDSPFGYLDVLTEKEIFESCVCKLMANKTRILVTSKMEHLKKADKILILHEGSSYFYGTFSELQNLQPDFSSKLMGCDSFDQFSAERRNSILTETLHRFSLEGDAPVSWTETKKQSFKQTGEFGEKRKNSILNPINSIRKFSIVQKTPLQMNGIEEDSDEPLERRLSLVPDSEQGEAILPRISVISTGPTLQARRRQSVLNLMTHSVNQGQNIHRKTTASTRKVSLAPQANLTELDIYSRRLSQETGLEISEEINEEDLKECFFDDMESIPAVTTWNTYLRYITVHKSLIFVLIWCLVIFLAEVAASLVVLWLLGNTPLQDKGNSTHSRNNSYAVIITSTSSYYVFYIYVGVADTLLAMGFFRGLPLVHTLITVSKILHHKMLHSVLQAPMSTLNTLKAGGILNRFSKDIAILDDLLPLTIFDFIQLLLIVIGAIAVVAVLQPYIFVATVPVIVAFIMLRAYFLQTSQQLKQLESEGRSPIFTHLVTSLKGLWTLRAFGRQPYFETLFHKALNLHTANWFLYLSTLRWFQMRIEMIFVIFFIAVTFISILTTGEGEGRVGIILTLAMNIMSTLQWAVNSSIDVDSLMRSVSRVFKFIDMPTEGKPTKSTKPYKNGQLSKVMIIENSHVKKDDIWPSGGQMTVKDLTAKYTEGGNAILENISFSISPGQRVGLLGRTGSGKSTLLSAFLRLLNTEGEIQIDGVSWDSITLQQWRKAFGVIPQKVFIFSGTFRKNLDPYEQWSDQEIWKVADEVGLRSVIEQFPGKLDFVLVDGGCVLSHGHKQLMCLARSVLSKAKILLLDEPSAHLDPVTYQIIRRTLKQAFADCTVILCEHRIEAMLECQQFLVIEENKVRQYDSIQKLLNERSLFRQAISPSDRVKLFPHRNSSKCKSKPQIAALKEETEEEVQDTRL

Row | EC50 (CFTR ΔF508 mutant) [nM] | EC50 (CFTR G551D mutant) [nM] | SMILES
1 | 23.6 | 3330 | CC(O)C1(C(=O)Nc2sc3c(c2C(N)=O)CC(C)(C)OC3(C)C)CC1 (stereo not shown) [Compound 79, 2-[[1-[1-hydroxyethyl]cyclopropanecarbonyl]amino]-5,5,7,7-tetramethyl-4H-thieno[2,3-c]pyran-3-carboxamide]
2 | 3.23 | 6660 | CC1(C)Cc2c(sc(NC(=O)C(C)(O)C(C)(C)C)c2C(N)=O)C(C)(C)O1 (stereo not shown) [Compound 81, 2-[(2-hydroxy-2,3,3-trimethyl-butanoyl)amino]-5,5,7,7-tetramethyl-4H-thieno[2,3-c]pyran-3-carboxamide]
3 | 25.4 | 3330 | CC1(C)Cc2c(sc(NC(=O)C(CO)CC3CC3)c2C(N)=O)C(C)(C)O1 (stereo not shown) [Compound 84, 2-[[2-(cyclopropylmethyl)-3-hydroxy-propanoyl]amino]-5,5,7,7-tetramethyl-4H-thieno[2,3-c]pyran-3-carboxamide]
4 | 93.5 | 3330 | CC1(C)Cc2c(sc(NC(=O)C(CO)C(C)(C)C)c2C(N)=O)C(C)(C)O1 (stereo not shown) [Compound 85, 2-[[2-(hydroxymethyl)-3,3-dimethyl-butanoyl]amino]-5,5,7,7-tetramethyl-4H-thieno[2,3-c]pyran-3-carboxamide]
5 | 145 | 1170 | CC1(C)Cc2c(sc(NC(=O)c3n[nH]cc3CO)c2C(N)=O)C(C)(C)O1 [Compound 88, N-(3-carbamoyl-5,5,7,7-tetramethyl-4H-thieno[2,3-c]pyran-2-yl)-4-(hydroxymethyl)-1H-pyrazole-3-carboxamide]
6 | 120 | 3200 | CC1(C)Cc2c(sc(NC(=O)C(CO)C(C)(C)C)c2C(N)=O)C(C)(C)O1 (stereo not shown) [Compound 90, 2-[[2-(hydroxymethyl)-3,3-dimethyl-butanoyl]amino]-5,5,7,7-tetramethyl-4H-thieno[2,3-c]pyran-3-carboxamide]
7 | 479 | 3330 | CC1(C)Cc2c(sc(NC(=O)c3ccn(COP(=O)(O)O)n3)c2C(N)=O)C(C)(C)O1 [Compound 93, [3-[(3-carbamoyl-5,5,7,7-tetramethyl-4H-thieno[2,3-c]pyran-2-yl)carbamoyl]pyrazol-1-yl]methyl dihydrogen phosphate]
8 | 28.3 | 1340 | CC1(C)Cc2c(sc(NC(=O)[C@]3(CO)CC3(C)C)c2C(N)=O)C(C)(C)O1 [Compound 99, 2-[[(1R)-1-(hydroxymethyl)-2,2-dimethyl-cyclopropanecarbonyl]amino]-5,5,7,7-tetramethyl-4H-thieno[2,3-c]pyran-3-carboxamide]
9 | 190 | 2860 | COCCOc1c[nH]nc1C(=O)Nc1sc2c(c1C(N)=O)CC(C)(C)OC2(C)C [Compound 100, N-(3-carbamoyl-5,5,7,7-tetramethyl-4H-thieno[2,3-c]pyran-2-yl)-4-(2-methoxyethoxy)-1H-pyrazole-3-carboxamide]
10 | 77.5 | 2790 | CC1(C)Cc2c(sc(NC(=O)c3ccccc3OC(F)F)c2C(N)=O)C(C)(C)O1 [Compound 113, 2-[[2-(difluoromethoxy)benzoyl]amino]-5,5,7,7-tetramethyl-4H-thieno[2,3-c]pyran-3-carboxamide]
11 | 40.9 | 1710 | CC1(C)Cc2c(sc(NC(=O)c3ccn(C(F)F)n3)c2C(N)=O)C(C)(C)O1 [Compound 114, N-(3-carbamoyl-5,5,7,7-tetramethyl-4H-thieno[2,3-c]pyran-2-yl)-1-(difluoromethyl)pyrazole-3-carboxamide]
12 | 62.1 | 586 | CC1(C)Cc2c(sc(NC(=O)c3ccnn3C(F)F)c2C(N)=O)C(C)(C)O1 [Compound 115, N-(3-carbamoyl-5,5,7,7-tetramethyl-4H-thieno[2,3-c]pyran-2-yl)-2-(difluoromethyl)pyrazole-3-carboxamide]
13 | 88 | 1520 | CC1(C)Cc2c(sc(NC(=O)c3nn(C(F)F)cc3Cl)c2C(N)=O)C(C)(C)O1 [Compound 116, N-(3-carbamoyl-5,5,7,7-tetramethyl-4H-thieno[2,3-c]pyran-2-yl)-4-chloro-1-(difluoromethyl)pyrazole-3-carboxamide]
14 | 239 | 6660 | Cn1cc(C(=O)Nc2sc3c(c2C(N)=O)CC(C)(C)OC3(C)C)c(C(F)F)n1 [Compound 117, N-(3-carbamoyl-5,5,7,7-tetramethyl-4H-thieno[2,3-c]pyran-2-yl)-3-(difluoromethyl)-1-methyl-pyrazole-4-carboxamide]
15 | 159 | 2170 | Cn1ccc(C(=O)Nc2sc3c(c2C(N)=O)CC(C)(C)OC3(C)C)n1 [Compound 119, N-(3-carbamoyl-5,5,7,7-tetramethyl-4H-thieno[2,3-c]pyran-2-yl)-1-methyl-pyrazole-3-carboxamide]
16 | 121 | 2410 | Cn1nccc1C(=O)Nc1sc2c(c1C(N)=O)CC(C)(C)OC2(C)C [Compound 120, N-(3-carbamoyl-5,5,7,7-tetramethyl-4H-thieno[2,3-c]pyran-2-yl)-2-methyl-pyrazole-3-carboxamide]
17 | 41.7 | 2380 | CC1(C)Cc2c(sc(NC(=O)c3cccc(C(F)F)c3)c2C(N)=O)C(C)(C)O1 [Compound 122, 2-[[3-(difluoromethyl)benzoyl]amino]-5,5,7,7-tetramethyl-4H-thieno[2,3-c]pyran-3-carboxamide]
18 | 87.9 | 825 | CC1(C)Cc2c(sc(NC(=O)c3ccccc3C(F)F)c2C(N)=O)C(C)(C)O1 [Compound 123, 2-[[2-(difluoromethyl)benzoyl]amino]-5,5,7,7-tetramethyl-4H-thieno[2,3-c]pyran-3-carboxamide]
19 | 40.6 | 685 | CC1(C)Cc2c(sc(NC(=O)C3(C)CC(F)(F)C3)c2C(N)=O)C(C)(C)O1 [Compound 124, 2-[(3,3-difluoro-1-methyl-cyclobutanecarbonyl)amino]-5,5,7,7-tetramethyl-4H-thieno[2,3-c]pyran-3-carboxamide]
20 | 194 | 3330 | Cc1nc(C(=O)Nc2sc3c(c2C(N)=O)CC(C)(C)OC3(C)C)co1 [Compound 125, N-(3-carbamoyl-5,5,7,7-tetramethyl-4H-thieno[2,3-c]pyran-2-yl)-2-methyl-oxazole-4-carboxamide]
21 | 555 | 3330 | CC1(C)Cc2c(sc(NC(=O)c3ccn(CC(F)F)n3)c2C(N)=O)C(C)(C)O1 [Compound 126, N-(3-carbamoyl-5,5,7,7-tetramethyl-4H-thieno[2,3-c]pyran-2-yl)-1-(2,2-difluoroethyl)pyrazole-3-carboxamide]
22 | 34.2 | 878 | CC1(C)Cc2c(sc(NC(=O)c3cscn3)c2C(N)=O)C(C)(C)O1 [Compound 128, N-(3-carbamoyl-5,5,7,7-tetramethyl-4H-thieno[2,3-c]pyran-2-yl)thiazole-4-carboxamide]
23 | 77.3 | 2290 | CC1(C)Cc2c(sc(NC(=O)c3cocn3)c2C(N)=O)C(C)(C)O1 [Compound 129, N-(3-carbamoyl-5,5,7,7-tetramethyl-4H-thieno[2,3-c]pyran-2-yl)oxazole-4-carboxamide]
24 | 552 | 3330 | CC1(C)Cc2c(sc(NC(=O)c3ccno3)c2C(N)=O)C(C)(C)O1 [Compound 133, N-(3-carbamoyl-5,5,7,7-tetramethyl-4H-thieno[2,3-c]pyran-2-yl)isoxazole-5-carboxamide]
25 | 78.6 | 2020 | CC1(C)Cc2c(sc(NC(=O)c3cncs3)c2C(N)=O)C(C)(C)O1 [Compound 134, N-(3-carbamoyl-5,5,7,7-tetramethyl-4H-thieno[2,3-c]pyran-2-yl)thiazole-5-carboxamide]
26 | 138 | 2030 | Cc1ncoc1C(=O)Nc1sc2c(c1C(N)=O)CC(C)(C)OC2(C)C [Compound 135, N-(3-carbamoyl-5,5,7,7-tetramethyl-4H-thieno[2,3-c]pyran-2-yl)-4-methyl-oxazole-5-carboxamide]

Source: patent publication US9351955B2, “Compounds and pharmaceutical compositions thereof for the treatment of cystic fibrosis” (Galapagos NV, priority 2013, dated 2016)
